This passage reports GZMB expression and PRF1 expression results from patent US9539307B2, “Compositions and methods for treating amyotrophic lateral sclerosis” (THE RESEARCH INSTITUTE AT NATIONWIDE CHILDREN'S HOSPITAL, priority 2012, dated 2017).

One data set deals with GZMB. Nature of the data set: Western blot of GZMB knockdown in human astrocytes. It is filed as cell-based. An excerpt: (§1) To knockdown PRF1 and GZMB levels in astrocytes, sequences from the RNAi Consortium lentiviral shRNA library were screened and relevant plasmids purchased from Open Biosystems. Clones TRCN0000077206 ([…] (SEQ ID NO: 19)) and TRCN0000032742 ([…] (SEQ ID NO: 20)) were used to target PRF1 and GZMB in mouse astrocytes, respectively. Clones TRCN0000007942 ([…] (SEQ ID NO: 21)) and TRCN0000006448 ([…] (SEQ ID NO: 22)) were used to knockdown PRF1 and GZMB in human astrocytes, respectively. Scrambled shRNA were used as controls for PRF1 ([…] (SEQ ID NO: 23)) and for GZMB ([…] (SEQ ID NO: 24)). […] Prior to addition to astrocytes, viral titer was obtained using Quick-titer lentivirus quantification kit follow manufacture's directions (CellBiolabs Inc, San Diego, Calif., USA).
(§2) Based on the levels of knockdown efficiency evaluated by western blot analysis, clones TRCN0000077206 ([…] (SEQ ID NO: 45)) and TRCN0000007942 ([…] (SEQ ID NO: 46)) were chosen to target PRF1 in mouse and human astrocytes, respectively. […]
(§3) Crude protein cell lysates were obtained using the Tissue Protein Extracting Reagent (Pierce, Rockford, Ill.) following manufacture recommendations. […] Bound primary antibody was detected by horseradish peroxidase conjugated secondary antibody (Jackson ImmunoResearch, West Grove, Pa.) followed by chemiluminescence using ECLTM Western Blotting Detection Reagents (GE Healthcare).
In general terms: Immunoblotting shows a protein as a band on a membrane.

The next data set concerns PRF1. Nature of the data set: Western blot of PRF1 knockdown in human astrocytes. It is filed as cell-based.
Excerpt: as §1, §2, §3

Turning to “CATTGTCTCCTATGGACGAAA (expressed or natural sequence) [SEQ ID NO: 2]”, in the data set on GZMB, the GZMB expression entry is recorded as “efficiently ablate”.
In the case of “ACCTGAATCATGGCCACCTAA (chemistry not given here) [SEQ ID NO: 1]”, in the data set with PRF1, the PRF1 expression result is “efficiently ablate”.
